In PMC8541992, “Safety, pharmacokinetics, and preliminary efficacy of the PARP inhibitor talazoparib in Japanese patients with advanced solid tumors: phase 1 study” (Investigational New Drugs, 2021):
Like-named read-outs stand apart in the source and are kept apart here.

How the values were obtained:
[1] = system: Japanese patients with locally advanced or metastatic solid tumors; experiment: Phase 1 dose-escalation study: safety (DLTs, TEAEs)
Excerpt: This is an ongoing open-label, non-randomized, phase 1 study of the PARP inhibitor, talazoparib, in Japanese patients with locally advanced or metastatic solid tumors regardless of mutations in DDR-related genes who are resistant to standard therapies or for whom no standard therapy is available (ClinicalTrials.gov NCT03343054). The study comprises a dose-escalation phase and a dose-expansion phase conducted in 8 Japanese centers (Supplementary Fig. 1). The objective of the initial dose-escalation phase was to investigate the safety, PK (single-dose and steady-state), and preliminary antitumor activity of single-agent talazoparib in sequential cohorts of patients with advanced solid malignancies. A modified 3 + 3 dose-escalation scheme was used to determine the recommended phase 2 dose in Japanese patients; up to 3 patients could be enrolled simultaneously in a cohort although sometimes due to logistical or clinical reasons more than 3 but no more than 9 patients were enrolled at each dose level. Successive cohorts of patients received escalating doses of talazoparib on an outpatient basis starting from 0.75 mg/day. To understand the single-dose safety and single-dose PK assessments of talazoparib, a lead-in period preceding the continuous daily doses was included. Data for the dose-escalation phase are reported here (data cut-off January 2020).
Eligible patients were assigned to one of two talazoparib treatment groups (dose levels). Successive cohorts of patients received talazoparib dosed orally at 0.75 mg QD (3 capsules of 0.25 mg) or 1 mg QD (4 capsules of 0.25 mg), with or without food, on an outpatient basis according to a modified 3 + 3 dose-escalation scheme. On Day −7 (lead-in visit), patients received a single dose of talazoparib, followed by continuous daily dosing from Day 1 of each 28-day cycle. Patients continued to receive talazoparib until either disease progression, patient refusal of study treatment, or unacceptable toxicity. Dose modifications were allowed depending on the type and severity of the toxicity encountered. To continue talazoparib, patients were required to have adequate bone marrow functions (hemoglobin ≥8.0 g/dL, absolute neutrophil count ≥1000/mm^3, platelets ≥50,000/mm^3). If grade 1 or grade 2 treatment-related toxicity occurred (other than renal impairment), dose interruption or dose reduction were not required. Daily dosing was paused for grade ≥3 adverse events (AEs) considered related to talazoparib. Supportive care including blood products for hematologic toxicities was allowed as appropriate per local guidance. Talazoparib dosing could resume at the next lower dose level (e.g., from 1.0 mg/day to 0.75 mg/day; 0.75 mg/day to 0.5 mg/day; 0.5 mg/day to 0.25 mg/day) when toxicity resolved to grade 1 or returned to baseline. […]

[2] = Phase 1 study: single- and multiple-dose plasma pharmacokinetics; type: in vivo, human (Japanese patients); settings: for Rac (ratio of AUCtau after multiple doses/AUCtau after single dose) / Rss (ratio of AUCtau after multiple doses/AUCinf after single dose) / Tmax: median (range); for Cmax / AUC / AUC(0-inf) / Cmin: geometric mean (geometric %CV); for half-life: read-out: t1/2 (terminal half-life) (converted); for AUC: AUCtau = AUC24
Procedure: PK parameters following single- and multiple-dose administration of single-agent talazoparib, included talazoparib area under the plasma concentration-time curve from 0 h to infinity (AUCinf; single dose) and during the dosing interval ([NT], multiple dosing); maximum observed plasma concentration (Cmax); lowest plasma concentration observed during the dosing interval (Cmin); elimination half-life (t1/2); time to Cmax (Tmax); ratio of [NT] after multiple doses/[NT] after single dose (Rac); and ratio of [NT] after multiple doses/AUCinf after single dose (Rss). PK parameters were calculated for each patient using non-compartmental analysis of plasma concentration-time data. Blood samples were collected pre-dose on Day -7, and on Days 1, 15, and 22 of Cycle 1, and Day 1 of Cycles 3 and 4. Post-dose blood samples were also collected at 0.5, 0.75, 1, 2, 3, 4, 6, 8, 10, and 24 h (Day -7 and Day 22 of Cycle 1 only) and at 48, 72, and 96 h (Day -7 only). […] PK parameters and safety data were summarized descriptively.

[3] = system: locally advanced or metastatic solid tumors; experiment: Phase 1 study: antitumor activity, investigator assessment (RECIST v.1.1); type: in vivo, human (Japanese patients)
Procedure: Antitumor activity was evaluated using radiological tumor assessments of all known or suspected disease sites. Imaging could include chest, abdomen, and pelvis computed tomography (CT) or magnetic resonance imaging (MRI) scans. Brain scans and bone scans were performed at baseline if disease was suspected and during the study as appropriate. CT or MRI scans were conducted at baseline (screening visit), on Day 1 (±7 days) of Cycle 2, and every other cycle thereafter, whenever disease progression was suspected, and at the time of withdrawal from treatment (if not performed within 6 weeks). Tumor response (unconfirmed) was assessed using Response Evaluation Criteria in Solid Tumors (RECIST) v.1.1, and included best overall response (complete response [CR], partial response [PR], stable disease [SD], progressive disease [PD], and non-CR/non-PD), objective response, defined as the sum of CR and PR, and overall disease control rate, defined as the sum of CR, PR, SD, and non-CR/non-PD.

PARP = system: PARP; set-up: method as in PMID 24356813, PMID 31296812; settings: PARP inhibition; read-out: Half-maximal inhibitory concentration; cited from earlier work
PARP on DNA = system: PARP on DNA; set-up: method as in PMID 24356813; settings: compared with other PARP inhibitors under investigation or approved in Japan; cited from earlier work
[4] = system: HER2-negative advanced breast cancer with a germline BRCA1/2 mutation; set-up: method as in PMID 30110579, PMID 30124753; settings: 1 mg QD versus chemotherapy; 95% CI 0.41 to 0.71, P < 0.001; cited from earlier work
[5] = system: non-Japanese patients with advanced breast cancer; set-up: method as in PMID 32162822; settings: EMBRACA study; cited from earlier work
[6] = 0.75 mg QD oral, N = 3, listed as talazoparib
[7] = 1 mg QD oral, N = 6, listed as talazoparib
[8] = plasma, multiple dose 0.75 mg QD oral, N = 3

Cn1ncnc1[C@H]1c2n[nH]c(=O)c3cc(F)cc(c23)N[C@@H]1c1ccc(F)cc1 [Talazoparib, talazoparib]
TEAE leading to death ([1]; 0.75 mg QD oral, N = 3): 0 n (%)
TEAE leading to death ([1]; 1 mg QD oral, N = 6): 0 n (%)
Dose reduction due to TEAE ([1]; human, in vivo): 1 (11.1) n (%)
TEAE leading to death ([1]; total, 0.75 and 1 mg QD, N = 9): 0 n (%)
Dose proportionality of drug exposure (Cmax and AUC) ([2]; 1 mg dose level compared with 0.75 mg dose level): slightly higher than dose-proportional
Cmax ([2]; human, plasma, po, 0.75 mg, multiple dose 0.75 mg QD oral, N = 3): 14.4 ng/mL
half-life ([2]; human, plasma, po, 0.75 mg, plasma, single dose 0.75 mg oral, N = 3, mean (standard deviation)): 56.6 h
Tmax ([2]; human, plasma, po, 0.75 mg, plasma, single dose 0.75 mg oral, N = 3, read-out: Tmax): 0.98 h
Cmax ([2]; human, plasma, po, 0.75 mg, single dose 0.75 mg oral, N = 3): 7.24 ng/mL
Cmax ([2]; human, plasma, po, 1 mg, multiple dose 1 mg QD oral, N = 6): 32.8 ng/mL
Tmax ([2]; human, plasma, po, 1 mg, plasma, multiple dose 1 mg QD oral, N = 6, read-out: Tmax): 1.03 h
half-life ([2]; human, plasma, po, 1 mg, plasma, single dose 1 mg oral, N = 6, mean (standard deviation)): 50.7 h
Tmax ([2]; human, plasma, po, 1 mg, plasma, single dose 1 mg oral, N = 6, read-out: Tmax): 0.97 h
Cmax ([2]; human, plasma, po, 1 mg, single dose 1 mg oral, N = 6): 13.8 ng/mL
AUC ([2]; human, plasma, multiple dose 0.75 mg QD oral, N = 3): 127 ng·h/mL
AUC ([2]; human, plasma, multiple dose 1 mg QD oral, N = 6): 245 ng·h/mL
AUC(0-inf) ([2]; human, plasma, single dose 0.75 mg oral, N = 3): 108 ng·h/mL
AUC(0-inf) ([2]; human, plasma, single dose 1 mg oral, N = 6): 200 ng·h/mL
Cmin [2, 8]: 2.18 (8) ng/mL
Tmax [2, 8]: 1.02 (1.0–1.9) h
Cmin ([2]; plasma, multiple dose 1 mg QD oral, N = 6): 3.65 (49) ng/mL
t1/2 (terminal half-life) ([2]; plasma, single dose 1 mg oral, N = 6, mean (standard deviation)): 50.73 (10.1) h
Time to peak of mean plasma concentrations ([2]; single or multiple dosing at 0.75 mg QD or 1 mg QD): around 1 h
Best overall response (unconfirmed): CR ([3]; 0.75 mg QD oral, N = 3): 0 n (%)
Best overall response (unconfirmed): Non-CR/non-PD ([3]; 0.75 mg QD oral, N = 3): 1 (33.3) n (%)
Best overall response (unconfirmed): PD ([3]; 0.75 mg QD oral, N = 3): 2 (66.7) n (%)
Best overall response (unconfirmed): PR ([3]; 0.75 mg QD oral, N = 3): 0 n (%)
Best overall response (unconfirmed): SD ([3]; 0.75 mg QD oral, N = 3): 0 n (%)
Disease control (CR + PR + SD + non-CR/non-PD) ([3]; 0.75 mg QD oral, N = 3): 1 (33.3) n (%)
Objective response (CR + PR) ([3]; 0.75 mg QD oral, N = 3): 0 n (%)
Best overall response (unconfirmed): CR ([3]; 1 mg QD oral, N = 6): 0 n (%)
Best overall response (unconfirmed): Non-CR/non-PD ([3]; 1 mg QD oral, N = 6): 1 (16.7) n (%)
Best overall response (unconfirmed): PD ([3]; 1 mg QD oral, N = 6): 3 (50.0) n (%)
Best overall response (unconfirmed): PR ([3]; 1 mg QD oral, N = 6): 0 n (%)
Best overall response (unconfirmed): SD ([3]; 1 mg QD oral, N = 6): 2 (33.3) n (%)
Disease control (CR + PR + SD + non-CR/non-PD) ([3]; 1 mg QD oral, N = 6): 3 (50.0) n (%)
Objective response (CR + PR) ([3]; 1 mg QD oral, N = 6): 0 n (%)
Overall disease control rate (CR + PR + SD + non-CR/non-PD) ([3]; all 9 patients, 0.75 and 1 mg QD, unconfirmed responses): 44.4%
Best overall response (unconfirmed): CR ([3]; total, 0.75 and 1 mg QD, N = 9): 0 n (%)
Best overall response (unconfirmed): Non-CR/non-PD ([3]; total, 0.75 and 1 mg QD, N = 9): 2 (22.2) n (%)
Best overall response (unconfirmed): PD ([3]; total, 0.75 and 1 mg QD, N = 9): 5 (55.6) n (%)
Best overall response (unconfirmed): PR ([3]; total, 0.75 and 1 mg QD, N = 9): 0 n (%)
Best overall response (unconfirmed): SD ([3]; total, 0.75 and 1 mg QD, N = 9): 2 (22.2) n (%)
Disease control (CR + PR + SD + non-CR/non-PD) ([3]; total, 0.75 and 1 mg QD, N = 9): 4 (44.4) n (%)
Objective response (CR + PR) ([3]; total, 0.75 and 1 mg QD, N = 9): 0 n (%)
PARP-trapping potential relative to other PARP inhibitors (PARP on DNA): approximately 100 times greater
Patients discontinued due to anemia [5]: 0.7%
Patients discontinued due to hematologic toxicities [5]: 1.4%
